The values below come from patent US11141454B2, “Application of earthworm protein peptide in preparation of medicine for preventing and/or treating thrombotic disease” (Zhongshiduqing (Shandong) Biotech Co., Ltd., priority 2019, dated 2021).

The experiment deals with carrageenan-induced rat tail thrombosis. Briefly: Carrageenan-induced rat tail thrombosis (black tail rate and length). In kind it is in vivo, SD rats. The settings on record: for Black tail rates of rats (%): Aspirin group 7.72 mg/kg intragastric. As for the experimental part:
The carrageenan was weighed and prepared into a carrageenan solution (2%) with a concentration of […] using 0.9% NaCl; rats were weighed and injected with carrageenan subcutaneously at a dose of 80 mg/kg; intragastric administration treatment was performed on a prevention group 5 days in advance; after model making for 30 min, intragastric administration treatment was performed on the remaining four groups other than the prevention group according to relevant doses, and then the rats were placed in a constant temperature environment of (18±2)° C., and free diet and water drinking were provided.
A total of 42 SD rats were randomly selected for thrombus model making by using carrageenan. The physiological activities of the rats were observed. The normal saline was used as a blank control group, and an aspirin group was used as a positive control group. A polypeptide (the earthworm protein peptide containing four anticoagulant active polypeptides, namely Leu-Val-Thr-Leu-Gly-Asn-Glu, Leu-Leu-Ala-Pro-Pro, Leu-Leu-Pro-Ala-Pro and Thr-Val-Ala-Pro-Phe prepared in Embodiment 1) and relevant medicines were dissolved with normal saline, and the intragastric administration dose was operated according to Table 2 below. […] After injection of carrageenan in each experimental group and normal saline group, rats with different degrees of blood stasis and black tail appeared 3 to 14 hours after model making, and gradually expanded to the tail root. The measured data was processed by spss18.0 software. In order to compare the differences between different groups, one-way analysis of variance was used. […] If P was smaller than 0.05, it indicated there was significant difference. […] The test results are shown in Table 3 and Table 4 below and in FIGS. 9 to 23.

For the compound `CC(=O)Oc1ccccc1C(=O)O` [Aspirin, aspirin], the “Black tail rates of rats (%)” value is, setting by setting: (24 h) 0%; (36 h) 16.7%; (48 h) 16.7%; (56 h) 16.7%; (72 h) 50%; (96 h) 67%. Further, the “black tail inhibition ratio compared with the normal saline group” value (aspirin group (7.72 mg/kg), after 48 hours, FIG. 9) is reported as 75.8%. Besides, where the note is “aspirin group (7.72 mg/kg), after 48 hours, normal saline 100.13 mm”, the “length of tail thrombogenesis (black tail length)” value is 24.24 mm. Besides, under “aspirin group, after 72 hours, FIG. 11”, the “number of rats with obvious black tail signs” value is recorded as “three”.
